Residue numbers refer to the chain shown, from its start. Where a SMILES comes first, the peptide text is derived from it.
Columns and labels:
[1] = biological target: T1, hTAS1R2 + hTAS1R3 G804A^7.42 (Homo sapiens, UniProt Q7RTX0+Q8TE23, G804A); assay: Calcium response (FLIPR), hTAS1R3 mutant coexpressed with hTAS1R2; type: cell-based; conditions: variant G804A^7.42; for Emax: read-out: maximal signal (% of wt)
T1 construct: expressed in transfected cells; host or cells: HEK293T cells stably expressing G16Gust44
T1 sequence (Q7RTX0 21-852 G804A): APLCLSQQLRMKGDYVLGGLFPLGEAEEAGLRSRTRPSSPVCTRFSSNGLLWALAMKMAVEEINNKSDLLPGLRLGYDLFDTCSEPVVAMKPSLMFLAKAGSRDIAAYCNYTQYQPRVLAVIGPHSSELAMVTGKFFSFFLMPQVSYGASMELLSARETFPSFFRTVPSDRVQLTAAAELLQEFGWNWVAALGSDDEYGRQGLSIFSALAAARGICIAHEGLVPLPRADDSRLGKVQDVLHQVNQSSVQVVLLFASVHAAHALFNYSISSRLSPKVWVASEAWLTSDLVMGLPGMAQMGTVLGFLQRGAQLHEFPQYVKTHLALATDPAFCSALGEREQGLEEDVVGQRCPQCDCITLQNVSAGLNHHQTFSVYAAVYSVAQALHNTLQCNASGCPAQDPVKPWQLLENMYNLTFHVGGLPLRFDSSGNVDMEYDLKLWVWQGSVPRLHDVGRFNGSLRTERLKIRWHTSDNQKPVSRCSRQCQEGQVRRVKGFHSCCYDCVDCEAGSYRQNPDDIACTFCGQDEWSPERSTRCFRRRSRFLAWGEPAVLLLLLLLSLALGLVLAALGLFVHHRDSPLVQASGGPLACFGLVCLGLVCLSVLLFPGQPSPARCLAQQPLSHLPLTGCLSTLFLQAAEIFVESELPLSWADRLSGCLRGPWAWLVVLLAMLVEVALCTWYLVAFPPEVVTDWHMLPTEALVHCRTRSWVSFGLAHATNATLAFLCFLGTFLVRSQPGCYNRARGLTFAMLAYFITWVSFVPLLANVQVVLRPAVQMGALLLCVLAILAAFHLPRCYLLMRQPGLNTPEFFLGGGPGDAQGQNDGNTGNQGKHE
T1 sequence (Q8TE23 20-839): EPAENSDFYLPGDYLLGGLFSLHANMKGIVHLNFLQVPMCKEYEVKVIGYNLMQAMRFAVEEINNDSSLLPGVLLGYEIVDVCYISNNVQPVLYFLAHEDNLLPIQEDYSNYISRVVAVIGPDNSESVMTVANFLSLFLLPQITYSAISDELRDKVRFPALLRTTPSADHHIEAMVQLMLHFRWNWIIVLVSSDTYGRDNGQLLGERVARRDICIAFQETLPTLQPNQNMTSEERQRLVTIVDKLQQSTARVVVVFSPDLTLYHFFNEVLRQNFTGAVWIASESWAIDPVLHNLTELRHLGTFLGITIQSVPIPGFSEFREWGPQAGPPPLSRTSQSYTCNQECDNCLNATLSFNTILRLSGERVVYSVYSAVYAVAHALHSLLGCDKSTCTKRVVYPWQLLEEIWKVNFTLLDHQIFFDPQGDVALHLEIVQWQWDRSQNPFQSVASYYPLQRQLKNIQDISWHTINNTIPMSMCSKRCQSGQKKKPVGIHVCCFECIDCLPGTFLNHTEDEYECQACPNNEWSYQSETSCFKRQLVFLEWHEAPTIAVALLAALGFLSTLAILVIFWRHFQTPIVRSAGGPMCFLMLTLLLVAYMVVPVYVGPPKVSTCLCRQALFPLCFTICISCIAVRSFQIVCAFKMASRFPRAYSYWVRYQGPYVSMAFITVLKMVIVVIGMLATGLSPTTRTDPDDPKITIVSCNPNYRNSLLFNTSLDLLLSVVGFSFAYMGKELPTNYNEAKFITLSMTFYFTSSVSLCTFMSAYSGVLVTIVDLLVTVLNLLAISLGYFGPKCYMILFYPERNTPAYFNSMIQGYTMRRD
Procedure, shortened: (§1)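 HEK293T/G16Gust44, transient transfection of HSV-tagged TAS1R2 + TAS1R3 mutants; Fluo4-AM loading 1 h at 24 h; sweet tastants in C1 solution; FLIPR Ca2+ read; ΔF/F, mock-subtracted; ≥3 independent expts in duplicate.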

[2] = biological target: T2, hTAS1R2 + hTAS1R3 Q636A^3.28 (Homo sapiens, UniProt Q7RTX0+Q8TE23, Q636A); assay: as above; type: cell-based; conditions: variant Q636A^3.28; for Emax: read-out: maximal signal (% of wt)
T2 construct: expressed in transfected cells; host or cells: HEK293T cells stably expressing G16Gust44
T2 sequence (Q8TE23 20-839): T1 sequence (Q8TE23 20-839)
T2 sequence (Q7RTX0 21-852 Q636A): T1 sequence (Q7RTX0 21-852 G804A) with Q616A, A784G
Procedure, shortened: as §1

SMILES	EC50 [1] [mM]	Emax [1] [%]	EC50 [2] [µM]	Emax [2] [%]
COc1ccc(CCC(=O)c2c(O)cc(O[C@@H]3O[C@H](CO)[C@@H](O)[C@H](O)[C@H]3O[C@@H]3O[C@@H](C)[C@H](O)[C@@H](O)[C@H]3O)cc2O)cc1O [NHDC, neohesperidin dihydrochalcone]	1.3 ± 0.5	53 ± 10	300 ± 200	61 ± 29
COC(=O)[C@H](Cc1ccccc1)NC(=O)[C@@H](N)CC(=O)O [aspartame] (HELM PEPTIDE1{D.F.[CO[*:1]]}$$$$V2.0)	1.6 ± 0.2	44 ± 1	1100 ± 100	70 ± 18

Source: publication PMC2099433, “The binding site for neohesperidin dihydrochalcone at the human sweet taste receptor” (BMC Structural Biology, 2007)
